Laboratory results taken from patent publication US5621133A (priority 1995, dated 1997).
Counter-ions that a name gives are not always drawn.

What was measured:
[1] = molecular target: dopamine D-2 receptor (Rattus norvegicus, UniProt P61169); test: biochemical; format: binding; settings: rat caudate, [125I]-p-aminophenylethyl spiroperidol; read-out: D-2 Ki
Procedure: Homogenized rat caudate was the source of the D-2 receptors. […] The molar affinity of the compound for the receptor binding site was calculated by the same method used for the D-1 receptor assay, assuming a competitive interaction between the compound and the radiolabeled ligand.

[2] = test system: dopamine D-1 receptor; settings: for Intrinsic Activity (adenylate cyclase assay): dopamine = 100, goldfish retina or rat striatum; for EC50: read-out: EC50 (agonist activity in adenylate cyclase assay), tissue from goldfish retina or rat striatum
Procedure: In order to determine agonist activity, cell-free tissue homogenates are incubated in an ionic buffer solution containing ATP and the compound being evaluated. The tissue was obtained from either goldfish retina or rat striatum.

[3] = test system: anesthetized dogs; test: Cardiovascular pharmacology - hemodynamic studies in anesthetized dogs; format: in vivo, dog (Beagle); settings: cumulative intraaortic infusion above renal arteries; dose ranges (g/kg/min): 2A 3-10, 3 1-10, 35 1-3, 36 1-10, 37 1-30
Procedure: Male Beagle dogs were anesthetized with pentobarbital (30 mg/kg. i.v.) and maintained with i.v. infusion (Abbott/Shaw Life Care Pump, Model II/D) to maintain stable cardiovascular function. The dogs were […] with a cuffed endotracheal tube and ventilated with room air by means of a positive pressure respiratory pump. Expired respiratory CO2 was monitored with a Beckman LB-2 gas analyzer and maintained at 5% by appropriate pump adjustments. The dogs were maintained at a body temperature of 37.5°±1.0° C. with a thermostatically controlled animal table. Polyethylene catheters were placed in the abdominal aorta via the femoral and carotid arteries for blood pressure and left ventricular pressure recordings. A Swan-Ganz thermodilution catheter with a 15 cm proximal port was placed in the jugular vein for central venous and pulmonary arterial recordings and for determination of cardiac output (American Edwards Cardiac Output Computer, Model COM-1). Heart rate and electrocardiogram (ECG) recordings were made from a Lead II ECG connection. […] A calibrated electromagnetic flow probe (Carolina Medical Electronics) was positioned around the renal artery. The abdominal cavity is closed with wound clips. Recordings were made on a Grass polygraph. An additional small polyethylene catheter was inserted into a branch of the left femoral artery and the tip positioned in the aorta above the renal arteries. […] A thirty-fold dose-response-curve was administered by varying flow rate from 0.01 to 0.30 mL/minute.

[4] = molecular target: dopamine D-1 receptor (Rattus norvegicus, UniProt P18901); test: biochemical; settings: D-1 Ki, rat caudate, [125I]SCH-23982
Source text: The compounds compete with the radiolabeled ligand for occupancy of the receptors and the molar potency of each compound was quantified.
The Ki values are inversely proportional to the affinity of the compound for the receptor.

[5] = test system: striatal dopamine receptors; test: Rotation behavior assay of in vivo activity (6-hydroxydopamine lesioned rat rotational model)
[6] = test system: spontaneously hypertensive rats; test: Diuretic effects in spontaneously hypertensive rats; format: in vivo, rat; settings: 3.0 mg/kg i.v., 2 hour interval
Procedure: Male, spontaneously hypertensive rats (SHR), weighing 285-350 grams were used to evaluate the diuretic effects of one of the compounds of the invention. Following an overnight fasting period with free access to drinking water, the rats received an intragastric fluid load of 0.9 saline at 5% of their body weight. Simultaneously with the load, the rats were dosed with a test compound or vehicle and placed individually in stainless steel metabolic cages where they had access to drinking water throughout the duration of the experiment. For intravenous administration, the rats were instrumented with indwelling cannulas placed into the jugular vein at least one week prior to the experiment.
Urine was collected at 2 and 4 hours following drug administration. The volume of excreted urine at each collection interval was measured accurately and the samples were analyzed for sodium, potassium and chloride ions. Sodium and potassium were measured using a Digital Readout Flame Photometer (Instrumentation Labs). Chloride was measured by the method of Shales and Shales, J Biol Chem 140:879 (1941). The statistical analysis of the data was computed by an off-line computer program. In this program, a comparison test is made between the vehicle (control) group and each treatment group for all variables at each time interval of the experiment. The test of statistical significance is based on the Student's t-test, where the calculated t is a measure of the probability density function.
A control group of six rats received 0.1 mg/kg of saline solution acidified by ascorbic acid (0.3 mL). This solution was also the vehicle for the test compound.

[7] = test system: rats; settings: cited from earlier work
[8] = test system: Parkinson's Disease; settings: cited from earlier work

dopamine D-2 receptor, sequence (P61169 whole entry): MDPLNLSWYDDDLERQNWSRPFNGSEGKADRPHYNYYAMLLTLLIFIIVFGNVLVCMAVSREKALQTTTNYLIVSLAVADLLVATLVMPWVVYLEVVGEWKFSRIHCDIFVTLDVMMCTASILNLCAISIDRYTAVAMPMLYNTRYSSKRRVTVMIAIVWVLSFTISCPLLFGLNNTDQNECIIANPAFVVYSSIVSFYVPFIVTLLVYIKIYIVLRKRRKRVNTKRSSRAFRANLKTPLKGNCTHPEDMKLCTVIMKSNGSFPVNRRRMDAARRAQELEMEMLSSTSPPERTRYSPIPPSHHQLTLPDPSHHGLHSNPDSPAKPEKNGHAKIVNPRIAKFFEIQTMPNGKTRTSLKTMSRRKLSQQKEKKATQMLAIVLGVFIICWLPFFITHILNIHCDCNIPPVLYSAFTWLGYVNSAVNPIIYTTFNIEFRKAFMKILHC
dopamine D-1 receptor (Rattus norvegicus, UniProt P18901), sequence (P18901 whole entry): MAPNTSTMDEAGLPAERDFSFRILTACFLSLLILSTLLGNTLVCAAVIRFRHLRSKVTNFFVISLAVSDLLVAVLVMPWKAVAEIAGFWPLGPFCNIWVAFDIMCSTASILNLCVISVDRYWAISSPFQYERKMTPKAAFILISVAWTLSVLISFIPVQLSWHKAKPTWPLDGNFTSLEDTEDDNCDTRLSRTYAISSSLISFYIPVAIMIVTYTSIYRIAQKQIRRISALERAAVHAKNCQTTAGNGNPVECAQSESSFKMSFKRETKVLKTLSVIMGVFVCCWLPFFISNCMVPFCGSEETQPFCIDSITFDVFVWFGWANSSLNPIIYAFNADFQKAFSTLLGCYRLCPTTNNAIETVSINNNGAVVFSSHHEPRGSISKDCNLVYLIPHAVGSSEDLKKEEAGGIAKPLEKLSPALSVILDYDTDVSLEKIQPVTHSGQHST

NC[C@H]1C[C@@H](c2ccccc2)Cc2c1ccc(O)c2O (relative stereo) [Example 35, [1,3-cis]1-Aminomethyl-5,6-dihydroxy-3-phenyl-1,2,3,4-tetrahydronaphthalene Hydrobromide]
Ki [1]: 0.76 µM | Intrinsic Activity (adenylate cyclase assay) [2]: 66 | EC50 [2]: 0.01 µM | Max Decrease MAP (mean arterial blood pressure) [3]: 26% | Max Increase RBF (renal blood flow) [3]: 35% | Ki [4]: 0.03 µM | ED50 oral (rotation behavior) [5]: 21.4 µmol/kg

Br.NCC1=CC(c2ccccc2)Cc2c1ccc(O)c2O (stereo not shown) [Example 2A, 1-Aminomethyl-5,6-dihydroxy-3-phenyl-3,4-dihydronaphthalene Hydrobromide]
Ki [1]: > 10 µM | Intrinsic Activity (adenylate cyclase assay) [2]: 56 | Urine potassium ([6]; control 0.29, n = 6): 0.55 meq/kg | Urine sodium ([6]; control 1.60, n = 6): 2.35 meq/kg | Urine chloride ([6]; control 1.87, n = 6): 2.71 meq/kg | Urine volume ([6]; control 13.02, n = 6): 22.57 mL/kg | Max Decrease MAP (mean arterial blood pressure) [3]: 32% | Max Increase RBF (renal blood flow) [3]: 27%

Br.NCC1=CC(C2CCCCC2)Cc2c1ccc(O)c2O (stereo not shown) [Example 36, 1-Aminomethyl-3-cyclohexyl-5,6-dihydroxy-3,4-dihydronaphthalene Hydrobromide]
Ki [1]: > 10 µM | Intrinsic Activity (adenylate cyclase assay) [2]: 57 | EC50 [2]: 0.079 µM | Max Decrease MAP (mean arterial blood pressure) [3]: 13% | Max Increase RBF (renal blood flow) [3]: 94% | Ki [4]: 0.2 µM | ED50 s.c. (rotation behavior) ([5]; injected subcutaneously): 0.5 µmol/kg | ED50 oral (rotation behavior) [5]: 170 µmol/kg

Oc1cc2c(cc1O)C(c1ccccc1)CNCC2 (stereo not shown) [SKF 38393]
food intake [7]: decrease food intake

CC(C)C[C@H]1C(=O)N2CCC[C@H]2[C@]2(O)O[C@](NC(=O)[C@@H]3C=C4c5cccc6[nH]c(Br)c(c56)C[C@H]4N(C)C3)(C(C)C)C(=O)N12 [bromocryptine]
effect on L-DOPA requirement [8]: lowers the amount of L-DOPA required to achieve the maximal therapeutic response
